Holding throughout (assay): relative viability (nuclei count vs DMSO), 5 days (fraction); higher = more cells survive
Compound in the experiment “Masitinib + Lapatinib”: Cc1ccc(NC(=O)c2ccc(CN3CCN(C)CC3)cc2)cc1Nc1nc(-c2cccnc2)cs1 [Masitinib] + CS(=O)(=O)CCNCc1ccc(-c2ccc3ncnc(Nc4ccc(OCc5cccc(F)c5)c(Cl)c4)c3c2)o1 [Lapatinib] (partner 2 µM)
In short, it runs like this: (§1)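 Five library-drug doses in √10 steps were combined with a fixed anchor-drug dose, or a single drug was given alone, by pin tool to lung cancer cell lines in 1536-well plates the day after seeding. Nuclei were stained and counted after 5 days. Relative viability is the nuclei count in treated wells over that in vehicle wells, taken as the median of duplicate plates.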

Compound in experiment [1]: CC1=CC(=CC=C1)NC2=NC(=CS2)C3=CC=NC=C3 + COc1cccc2cc(-c3nc([C@H]4CC[C@H](C(=O)O)CC4)n4ncnc(N)c34)[nH]c12 [OSI-027] (partner 0.5 µM)
The method in brief:
as §1

Compound in the experiment “Masitinib + AZD7762”: Cc1ccc(NC(=O)c2ccc(CN3CCN(C)CC3)cc2)cc1Nc1nc(-c2cccnc2)cs1 [Masitinib] + NC(=O)Nc1cc(-c2cccc(F)c2)sc1C(=O)N[C@H]1CCCNC1 [AZD7762] (partner 0.2 µM)
The method in brief: as §1

Compound in the experiment “Masitinib + Luminespib”: Cc1ccc(NC(=O)c2ccc(CN3CCN(C)CC3)cc2)cc1Nc1nc(-c2cccnc2)cs1 [Masitinib] + CCNC(=O)c1noc(-c2cc(C(C)C)c(O)cc2O)c1-c1ccc(CN2CCOCC2)cc1 [Luminespib] (partner 0.01 µM)
The method in brief: as §1

As for LC-2-ad, the relative viability in the experiment with Masitinib + Lapatinib (first compound 0.01 µM) is 0.762; with Masitinib + Lapatinib (first compound 0.03162 µM), 1.02; in the experiment with Masitinib + Lapatinib (first compound 0.1 µM), 0.874; with Masitinib + Lapatinib (first compound 0.3162 µM) it was 0.994; with Masitinib + Lapatinib (first compound 1 µM) it was 0.962; in experiment [1] (first compound 0.08 µM), 0.785. In addition, the relative viability in experiment [1] (first compound 0.8 µM) turned out to be 0.74; in experiment [1] (first compound 2.53 µM), 0.79; in experiment [1] (first compound 8 µM), 0.728; in the experiment with Masitinib + AZD7762 (first compound 0.01 µM), 0.687; with Masitinib + AZD7762 (first compound 0.03162 µM), 0.795; with Masitinib + AZD7762 (first compound 0.1 µM) it was 0.707. Besides, the relative viability with Masitinib + AZD7762 (first compound 0.3162 µM) was 0.71; with Masitinib + AZD7762 (first compound 1 µM), 0.818; with Masitinib + Luminespib (first compound 0.01 µM), 0.918; in the experiment with Masitinib + Luminespib (first compound 0.03162 µM), 1.18; with Masitinib + Luminespib (first compound 0.1 µM) it was 1.04; with Masitinib + Luminespib (first compound 0.3162 µM) it was 0.916. Also, the relative viability with Masitinib + Luminespib (first compound 1 µM) amounted to 0.929.
For the cell line LCLC-97TM1, the relative viability with Masitinib + Lapatinib (first compound 0.01 µM) came to 0.767; with Masitinib + Lapatinib (first compound 0.03162 µM) it was 1.13; with Masitinib + Lapatinib (first compound 0.1 µM), 0.673; with Masitinib + Lapatinib (first compound 0.3162 µM) it was 1.57; in the experiment with Masitinib + Lapatinib (first compound 1 µM), 0.715; in experiment [1] (first compound 0.08 µM), 0.413. The relative viability in experiment [1] (first compound 0.253 µM) stood at 0.43; in experiment [1] (first compound 0.8 µM), 0.546; in experiment [1] (first compound 2.53 µM) it was 0.513; in experiment [1] (first compound 8 µM), 0.692; with Masitinib + AZD7762 (first compound 0.01 µM), 0.235; in the experiment with Masitinib + AZD7762 (first compound 0.03162 µM), 0.288. Moreover, the relative viability stood at 0.229 in the experiment with Masitinib + AZD7762 (first compound 0.1 µM); 0.191 with Masitinib + AZD7762 (first compound 0.3162 µM); 0.229 with Masitinib + AZD7762 (first compound 1 µM); 0.777 in the experiment with Masitinib + Luminespib (first compound 0.03162 µM); 0.857 with Masitinib + Luminespib (first compound 0.1 µM); 0.946 with Masitinib + Luminespib (first compound 0.3162 µM). Moreover, in the experiment with Masitinib + Luminespib (first compound 1 µM), the relative viability stood at 0.857.
With LK-2, the relative viability is 1.06 with Masitinib + Lapatinib (first compound 0.01 µM); 0.836 in the experiment with Masitinib + Lapatinib (first compound 0.03162 µM); 1.12 in the experiment with Masitinib + Lapatinib (first compound 0.1 µM); 1.06 with Masitinib + Lapatinib (first compound 0.3162 µM); 0.941 in the experiment with Masitinib + Lapatinib (first compound 1 µM); 0.165 in experiment [1] (first compound 0.08 µM). Moreover, the relative viability in experiment [1] (first compound 0.253 µM) worked out at 0.181; in experiment [1] (first compound 0.8 µM), 0.237; in experiment [1] (first compound 2.53 µM), 0.185; in experiment [1] (first compound 8 µM), 0.214; with Masitinib + AZD7762 (first compound 0.01 µM), 0.4; with Masitinib + AZD7762 (first compound 0.03162 µM), 0.346. Also, the relative viability with Masitinib + AZD7762 (first compound 0.1 µM) stood at 0.692; with Masitinib + AZD7762 (first compound 0.3162 µM), 0.525; in the experiment with Masitinib + AZD7762 (first compound 1 µM), 0.302; in the experiment with Masitinib + Luminespib (first compound 0.01 µM) it was 0.183; in the experiment with Masitinib + Luminespib (first compound 0.03162 µM) it was 0.183; with Masitinib + Luminespib (first compound 0.1 µM), 0.132. In addition, the relative viability with Masitinib + Luminespib (first compound 0.3162 µM) came to 0.151; in the experiment with Masitinib + Luminespib (first compound 1 µM), 0.175.
As to LOU-NH91, the relative viability with Masitinib + Lapatinib (first compound 0.01 µM) stood at 0.781; in the experiment with Masitinib + Lapatinib (first compound 0.03162 µM) it was 0.633; with Masitinib + Lapatinib (first compound 0.1 µM) it was 0.786; with Masitinib + Lapatinib (first compound 0.3162 µM) it was 0.563; in the experiment with Masitinib + Lapatinib (first compound 1 µM) it was 0.708; in experiment [1] (first compound 0.08 µM) it was 0.552. Also, the relative viability in experiment [1] (first compound 0.253 µM) stood at 0.642; in experiment [1] (first compound 0.8 µM), 0.651; in experiment [1] (first compound 2.53 µM) it was 0.648; in experiment [1] (first compound 8 µM) it was 0.711; with Masitinib + AZD7762 (first compound 0.01 µM), 0.748; with Masitinib + AZD7762 (first compound 0.03162 µM) it was 0.628. For the same cell line, the relative viability in the experiment with Masitinib + AZD7762 (first compound 0.1 µM) was 0.799; with Masitinib + AZD7762 (first compound 0.3162 µM), 0.642; with Masitinib + AZD7762 (first compound 1 µM) it was 0.548; in the experiment with Masitinib + Luminespib (first compound 0.01 µM), 0.307; with Masitinib + Luminespib (first compound 0.03162 µM), 0.32; with Masitinib + Luminespib (first compound 0.1 µM), 0.337. For the same cell line, the relative viability stood at 0.272 with Masitinib + Luminespib (first compound 0.3162 µM) and 0.372 with Masitinib + Luminespib (first compound 1 µM).

(Values after the supplement of paper PMC10307832.)
